We go through two compounds from patent publication US11987557B2, “Phenalene-1-one-containing photosensitizer composition, phenalene-1-one compound and the use thereof” ([…], priority 2017, dated 2024).

Where “and” joins values, the source holds several entries; their conditions need not be identical. Equal entries are not always repeated.

The test system of data set [1] is S. aureus. The experiment in a line: Phototoxic effect of coated surface in office lighting (Example 4). In kind it is cell-based, Staphylococcus aureus. To be noted: 2-C paint from Example 2.1, storage 24 h, illumination period 12 h. The procedure:
In a subsequent test, the 2-C paint system was irradiated with room lighting. In this regard, the photoactive surfaces produced in Example 2.1 with the photosensitizers SAPN-19c and SAPN-19 were additionally stored exposed in areas with normal office lighting (standard fluorescent lights, Osram Cool White, 840) and the phototoxic action on S. aureus with the same pathogen counts as in Example 3 was analysed after specific periods. In this regard, the photoactive layers were distanced from the light source by approximately 40 cm. It was shown that for the photosensitizer SAPN-19c, after storage for 24 h under standard office lighting conditions with an illumination period of 12 h, that ail pathogens on the surface had been completely eradicated (approximately 5.5 log10 units, corresponding to >99.999% reduction).

For data set [2], the system named is Staphylococcus aureus ATCC 25923. Briefly: Photodynamic inactivation of S. aureus on coated sample supports, LED 405 nm (Example 3). In kind it is cell-based. The protocol: The photosensitizer was dissolved in the respective paint system and applied to various square sample supports (width: 4 cm, length: 4 cm, thickness: 3 mm) formed from PVC or PMMA and then dried. After drying the coating, a specific quantity of bacteria from the species Staphylococcus aureus ATCC 25923 was applied to the surface.
In this regard, firstly, an overnight (ON) culture of S. aureus in 5 mL of Mueller Hinton broth (Carl Roth GmbH+Co. KG, Karlsruhe, DE) was inoculated with a single colony from an agar plate and incubated at 37° C. and 180 rpm on a shaker for 18-20 hours.
On the day of the test, in each case 1 mL of ON culture was centrifuged (Hettich Universal 320 R centrifuge (Andreas Hettich GmbH & Co. KG, Tuttlingen, DE); swing-out rotor 1494; 10 Min, 3000 rpm, RT). The supernatant was discarded and the pellet was re-suspended in 1 mL of Milli-Q water, which is commercially available from Merck (KGaA, Darmstadt, DE) (designation “Milli-Q Integral Ultra-pure Water (Type 1)”).
After determining the optical density at 600 nm (“Specord 50 plus”, spectrometer, Analytik Jena), the re-suspended bacteria were diluted with Milli-Q-water to a cell count of 10^5 bacteria/mL. From the dilution, in each case 100 μL was dripped onto the sample support using a pipette (droplet size approximately 1 cm^2).
The sample support was then dried in air under a clean bench in the dark for approximately 2 hours, until water could no longer be seen on the surface.
The respective sample supports were irradiated with monochrome light at a wavelength of 405 nm with the aid of a LED module (test area 5×5 cm homogeneously illuminated; high power LEDs) or with room lighting (Osram Lumilux Cool White, colour temperature 4000 K) at the intensities and for the irradiation periods given below. Directly after irradiation, the bacteria were wiped from the surface of the respective sample support with a sterile cloth and re-suspended in 1 mL of Mueller-Hinton broth.
Next, the sample was serially diluted (1:10 dilution stages: 180+20 μL; to dilution stage 10^5).
For each dilution stage (100 to 10^−5), 3× respectively 20 μL of broth was dripped onto a Mueller-Hinton agar plate (Carl Roth GmbH+Co. KG) using a pipette, and spread. The agar plates were then incubated at 37° C. ON.
On the following day, the colonies from all of the dilution stages which could be counted of an experiment were counted and the CFU/mL was calculated.
Next, from the value for the CFU/mL, the log10 eradication rate was calculated. The reference point in each experiment was the reference control (=100% count of bacteria employed).
A test was composed of the following: • coated sample support: without photosensitizer, not irradiated (“reference control”) • coated sample support: with photosensitizer, not irradiated (“dark control”) • coated sample support: without photosensitizer and irradiated (“light control”) • coated sample support: with photosensitizer and irradiated (“sample”)
• Coated material: PMMA, 3 mm thickness, 4×4 cm • Drying time approximately 1 hour • Drying temperature 15-30° C. • Application with a spray gun • Concentration of photosensitizer used: […] (61.55 mg/L) Irradiation Conditions:
• Coated material: PVC, 3 mm thickness, 4×4 cm • Drying time approximately 2 hours • Drying temperature 15-30° C. • Relative humidity for the drying time 30-70% • Application with a spray gun • Concentration of photosensitizer used: […] (61.55 mg/L) Irradiation Conditions: […]

In data set [3] the test system is S. aureus. The experiment in a line: Long-term test of photoactive stability after pre-irradiation (Example 5). Format: cell-based, Staphylococcus aureus. The protocol:
In order to test the stability of the lacks produced, a long term test was carried out.
The test surfaces were pre-irradiated for different time periods (5, 25, 50, 75 h) at an output of 5 mW cm^−2 in order to establish whether the respective photosensitizer in PUR was affected in a manner such that the phototoxic activity of the surface was reduced:
Following the pre-irradiation, the surfaces as described above were contaminated with S. aureus then irradiated for 2 h (corresponds to 5 mW cm^−2) and the phototoxic efficiency was measured.

With `CC(C)(O)c1cc[n+](CC2=Cc3cccc4cccc(c34)C2=O)cc1` [SAPN-19c], the “eradication of pathogens on the surface” value in the data set on S. aureus [1] (standard office lighting (Osram Cool White, 840), approx. 40 cm) was “approximately 5.5 log10 units”. In the data set on S. aureus [1] (standard office lighting), the “reduction of pathogens on the surface” value was above 99.999%. Also, the “mean eradication of S. aureus” value in data set [2] (1-C polyurethane paint, water-based, on PVC, LED 405 nm, 10 mW/cm^2, 10 minutes (6 J/cm^2), three independent tests) was 3.0 log10 units and 3 log10 units. In data set [2] (2-C polyurethane paint on PMMA, LED 405 nm, 0.7 mW/cm^2, after 20 minutes, two independent tests), the “eradication of S. aureus” value was determined as 1.9 log10 units. Besides, the “log10 reduction of S. aureus” value in data set [2] (2-C polyurethane paint on PMMA, photosensitizer 200 μm (61.55 mg/L), LED 405 nm, 10 mW/cm^2, 2 minutes (1.2 J/cm^2), mean of 3 independent experiments) was determined as 1.8 log10. The “extermination of S. aureus” value in data set [2] (2-C polyurethane paint on PMMA, photosensitizer 200 μm (61.55 mg/L), LED 405 nm, 20 mW/cm^2, 2 minutes (2.4 J/cm^2)) was 2.7 log10 units. The “reduction of the bacteria involved” value in data set [2] (coating at 6 J/cm^2, equivalent of 3 log10 units) was found to be 99.9%.
`OCCOCCOc1ccc(-c2c3nc(c(-c4ccccc4)c4ccc([nH]4)c(-c4ccccc4)c4nc(c(-c5ccccc5)c5ccc2[nH]5)C=C4)C=C3)cc1` [TPP sensitizer WBII/2]: the “phototoxic efficiency after pre-irradiation” value with S. aureus [3] (PUR surface pre-irradiated 5, 25, 50, 75 h at 5 mW cm^−2, then contaminated with S. aureus and irradiated 2 h) is “noticeable reduction in the phototoxic efficiency”. Besides, the “state of the test surfaces after one month” value with S. aureus [3] (porphyrin-doped surfaces, after one month) was “discoloured significantly and they lost phototoxic activity”.
